Source: publication PMC11695783 (Frontiers in Pharmacology, 2024)
≈ marks a conversion by molar mass, not a printed value. Where “and” joins values, the source holds several entries; their conditions need not be identical. Equal values may be shown once. Where a name gives a salt, the structure may show the parent alone.

How the values were obtained:
IFN-γ = IFN-γ in BALF of M. pneumoniae-infected mice (ELISA); assay type: in vivo, BALB/c mice; details: tiamulin 40 mg/kg PO (fumarate soluble powder); for IFN-γ in BALF (AV): group AV; for IFN-γ in BALF: individual mice
Protocol: (§1) Adult BALB/c mice (20–22 g) were divided into a control group, a positive group, and compound 16C groups at low (20 mg/kg), medium (40 mg/kg), and high-dose (80 mg/kg) levels and oral and intramuscular tiamulin treatment groups (40 mg/kg). We formulated the above dose range based on the dose at which tiamulin was approved for injection (10–20 mg/kg) and the dose previously reported (45 mg/kg) ([EMA, 1999]; [Xiao et al., 2016]). In summary, we selected similar doses for compound 16C in vivo study. 40 mg/kg was used as an intermediate value, one-half of it as a low dose, and two times of it as a high dose. To prepare the challenge solution, logarithmic phase culture suspensions were centrifuged at 1700 g for 10 min, and the pellets were suspended in sterile PBS to obtain 1 × 10^9 CFU/mL. Before the challenge, mice were anesthetized with tribromoethanol (250 mg/kg, IP). Mice in the control groups were intratracheally inoculated with sterile PBS, whereas mice in the other groups were intratracheally challenged with 50 μL (1 × 10^9 CFU/mL) M. pneumoniae suspension once a day for 3 days. Compound 16C and tiamulin (tiamulin-IM group) dissolved using the method mentioned in pharmacokinetic studies, and the tiamulin fumarate soluble powder was dissolved in ddH2O for oral administration. After the final challenge, antibiotics were administered at low, medium, and high-dose levels (see above) at 10 a.m. and 10 p.m. daily for 4 consecutive days. Normal saline containing 5% DMSO and 5% Tween-80 was administered as control and positive groups by thigh intramuscular injection. To compare the efficacy of compound 16C and tiamulin under the same route of administration, we used the original tiamulin for intramuscular administration in the same formulation. On the other hand, tiamulin fumarate soluble powder, approved for oral administration to treat animal mycoplasma diseases in China, was administered to mice by gavage. Based on a clinical study of lefamulin in community-acquired bacterial pneumonia (CABP), subjects were administered twice a day and the 96 ± 24 h of starting treatment was an essential point for early clinical response (ECR) ([Paukner et al., 2022]). We therefore stopped treatment at 96 h and sampled at 192 h to explore whether the disease worsened after cessation of treatment. Bronchoalveolar lavage fluid (BALF) and lungs were collected at 0, 96, 192 h (Samples of 0 h were collected before starting treatment, and mice were fed ad libitum without drug treatment during 96–192 h) after the first dose, BALF for cytokine and cytological analysis and lung for histopathological evaluation.
(§2) Bronchoalveolar lavage was performed according to a standardized method ([Van Hoecke et al., 2017]). BALF was obtained following infusion of 0.5 mL PBS via tracheal cannulation into the lung twice (total 1 mL), and 200 µL was used for mycoplasma counts. The remaining BALF was centrifuged at 300 g for 10 min to separate the debris. The supernatants were stored at −80°C, and the debris was resuspended in the same volume of PBS containing red blood cell lysis buffer. A hemocytometer was used to count total cell numbers in BALF, and cell smears (Diff-Quik staining) were prepared to calculate the percentages of neutrophils, macrophages, and lymphocytes. IFN-γ, TNF-α, and CXCL1 levels in BALF samples were assessed using commercial ELISA kits using guidelines recommended by the manufacturer (Elabscience, Wuhan, China). Parallel data for each experimental group at each time point were obtained from six different mice.

[1] = system: Mycoplasma pneumoniae-infected mice (lung tissue); test: Histopathological assessment of lung tissue (HPS, response and recovery rates) in M. pneumoniae-infected mice; assay type: in vivo, BALB/c mice; parameters: HPS value (mean) / HPS: scale not given here; details: tiamulin 40 mg/kg PO (fumarate soluble powder); for HPS: individual mice
Protocol: as §1
Lung tissues were collected at 0, 96, and 192 h following drug administration. Lungs were collected from 6 mice in each group at 96 h and 13–15 mice in each group at 192 h. In addition, the lungs of 8 untreated infected mice were taken at 0 h as initial controls. Lung tissues were fixed in 4% paraformaldehyde, and whole-mount sections of paraffin-embedded lungs were stained with hematoxylin and eosin (H&E). The histopathologic score (HPS) was determined according to published protocols by a single pathologist who was unaware of the treatment status and groups of the animals ([Cimolai et al., 1992]). The HPS was based on individual grading of peribronchiolar/bronchial infiltrate, bronchiolar/bronchial luminal exudate, perivascular infiltrate, and parenchymal pneumoniae.

Mycoplasma pneumoniae = test: In vivo pharmacodynamic study: Mycoplasma pneumoniae loads in BALF of infected mice; parameters: species or system BALB/c mice; details: tiamulin 40 mg/kg PO (fumarate soluble powder); for MPcounts in BALF (AV): group AV; for MPcounts in BALF: individual mice
Protocol: as §1, §2

TNF-α = TNF-α in BALF of M. pneumoniae-infected mice (ELISA); assay type: in vivo, BALB/c mice; details: tiamulin 40 mg/kg PO (fumarate soluble powder), individual mice
Protocol: as §1, §2

CXCL1 = CXCL1 in BALF of M. pneumoniae-infected mice (ELISA); assay type: in vivo, BALB/c mice; details: tiamulin 40 mg/kg PO (fumarate soluble powder), individual mice
Protocol: as §1, §2

[2] = system: Mycoplasma pneumoniae strain M129 (ATCC 29342); test: Time-kill curves; assay type: cell-based; parameters: M. pneumoniae count in time-kill curve: unit not given here
Protocol: (§3) Mycoplasma pneumoniae strain M129 (ATCC 29342) was obtained from American Type Culture Collection (Manassas, VA, United States) and cultured at 37°C in the presence of 5% CO2 in the modified SP-4 liquid medium (pH 7.4) containing 2.1% (w/v) CM1166 mycoplasma broth base medium (Oxoid, Hants, United Kingdom), 20% (v/v) fetal bovine serum (FBS, Bioexplorer, CO, United States), 0.4% yeast extract (Oxoid), 0.55% (w/v) CMRL 1066 w/L-glutamine culture media powder (MyBioSource, San Diego, CA, United States), 1% D-glucose (Macklin) and 0.004% phenol red (Macklin). […] The solid medium is based on the above formula with the addition of 1% agar, and the characteristic fried egg-like colonies were used for experiments following incubation for 7 d on plates.
The tubes were incubated at 37°C in 5% CO2 for 72 h, and 200 µL of the culture was removed every 12 h for 10-fold serial dilutions. The diluted cultures were plated on plates for further culture and counted after 7 d. The experiment was repeated three times.

[3] = system: Mycoplasma pneumoniae strain M129 (ATCC 29342); test: Susceptibility assay (broth microdilution MIC, MBC); assay type: cell-based
Protocol: as §3
The broth microdilution MIC procedure was performed according to standardized methods for microdilution susceptibility testing of mycoplasma species ([Waites et al., 2012]). […] The concentration of organisms should be determined to approximately 10^6 CFU/mL prior to inoculation into 96-well plates. Due to the action of phenol red, the acidic metabolites of microbial growth can turn the medium yellow. […] The MBC assays were performed based on MICs following endpoint reading and the liquid in the high-concentration wells was removed for bacterial counting.

## C=C[C@]1(C)C[C@@H](OC(=O)CSCCN(CC)CC)[C@]2(C)[C@H](C)CC[C@]3(CCC(=O)[C@H]32)[C@@H](C)[C@@H]1O [Tiamulin-PO, Tiamulin fumarate, reference compound]
IFN-γ; 96 h
  IFN-γ in BALF (AV): 32.2599 pg/mL
  IFN-γ in BALF: 34.8842 pg/mL and 17.3704 pg/mL and 63.2217 pg/mL and 29.659 pg/mL and 25.3118 pg/mL and 23.1122 pg/mL
IFN-γ; 192 h
  IFN-γ in BALF (AV): 34.0801 pg/mL
  IFN-γ in BALF: 37.2747 pg/mL and 51.8224 pg/mL and 27.2214 pg/mL and 28.4425 pg/mL and 30.8711 pg/mL and 28.8485 pg/mL
[1]; 96 h
  HPS: 2.5 and 4 and 1 and 3
[1]; 192 h
  HPS: 1.5 and 2 and 1 and 8 and 0 and 3 and 4
[1]; from HPS at 192 h
  Recovery: 6.67%
  Response: 86.67%
Mycoplasma pneumoniae; 96 h
  MPcounts in BALF (AV): 4.578 Log10CFU/mL
  MPcounts in BALF: 4.372 Log10CFU/mL and 4.349 Log10CFU/mL and 5.68 Log10CFU/mL and 4.443 Log10CFU/mL and 4.274 Log10CFU/mL and 4.354 Log10CFU/mL
Mycoplasma pneumoniae; 192 h
  MPcounts in BALF (AV): 4.3846 Log10CFU/mL
  MPcounts in BALF: 4.0302 Log10CFU/mL and 4.805 Log10CFU/mL and 4.331 Log10CFU/mL and 4.53 Log10CFU/mL and 4.4765 Log10CFU/mL and 4.136 Log10CFU/mL
TNF-α; 96 h
  TNF-α in BALF: 13.0598 pg/mL and 17.5743 pg/mL and 24.463 pg/mL and 20.81 pg/mL and 21.310 pg/mL and 10.7269 pg/mL
TNF-α; 192 h
  TNF-α in BALF: 8.7059 pg/mL and 12.3017 pg/mL and 9.398 pg/mL and 5.239 pg/mL and 5.021 pg/mL and 15.24 pg/mL
CXCL1; 96 h
  CXCL1 in BALF: 47.9583 pg/mL and 40.7995 pg/mL and 44.8333 pg/mL and 37.1973 pg/mL and 31.7608 pg/mL and 43.0428 pg/mL
CXCL1; 192 h
  CXCL1 in BALF: 52.4056 pg/mL and 49.740 pg/mL and 60.3659 pg/mL and 36.7459 pg/mL and 45.7272 pg/mL

## CC[C@H]1OC(=O)[C@H](C)[C@@H](O[C@H]2C[C@@](C)(OC)[C@@H](O)[C@H](C)O2)[C@H](C)[C@@H](O[C@@H]2O[C@H](C)C[C@H](N(C)C)[C@H]2O)[C@](C)(O)C[C@@H](C)C(=O)[C@H](C)[C@@H](O)[C@]1(C)O [erythromycin]
[2]; 1×MIC, time 0
  M. pneumoniae count in time-kill curve: 7.138
[2]; 1×MIC, time 12
  M. pneumoniae count in time-kill curve: 6.145
[2]; 1×MIC, time 24
  M. pneumoniae count in time-kill curve: 6.32
[2]; 1×MIC, time 36
  M. pneumoniae count in time-kill curve: 5.109
[2]; 1×MIC, time 48
  M. pneumoniae count in time-kill curve: 4.8395
[2]; 1×MIC, time 60
  M. pneumoniae count in time-kill curve: 5.816
[2]; 1×MIC, time 72
  M. pneumoniae count in time-kill curve: 6.113
[2]; 2 × MIC, 72 h exposure
  decrease of bacterial load: 3.61 log10 CFU/mL
[2]; 2×MIC, time 0
  M. pneumoniae count in time-kill curve: 7.138
[2]; 2×MIC, time 12
  M. pneumoniae count in time-kill curve: 6.411
[2]; 2×MIC, time 24
  M. pneumoniae count in time-kill curve: 6.275
[2]; 2×MIC, time 36
  M. pneumoniae count in time-kill curve: 4.753
[2]; 2×MIC, time 48
  M. pneumoniae count in time-kill curve: 4.288
[2]; 2×MIC, time 60
  M. pneumoniae count in time-kill curve: 4.145
[2]; 2×MIC, time 72
  M. pneumoniae count in time-kill curve: 3.53
[2]; 4×MIC, time 0
  M. pneumoniae count in time-kill curve: 7.138
[2]; 4×MIC, time 12
  M. pneumoniae count in time-kill curve: 6.078
[2]; 4×MIC, time 24
  M. pneumoniae count in time-kill curve: 6.148
[2]; 4×MIC, time 36
  M. pneumoniae count in time-kill curve: 4.203
[2]; 4×MIC, time 48
  M. pneumoniae count in time-kill curve: 3.916
[2]; 4×MIC, time 60
  M. pneumoniae count in time-kill curve: 3.913
[2]; 4×MIC, time 72
  M. pneumoniae count in time-kill curve: 3.415
[2]; 8×MIC, time 0
  M. pneumoniae count in time-kill curve: 7.138
[2]; 8×MIC, time 12
  M. pneumoniae count in time-kill curve: 6.379
[2]; 8×MIC, time 24
  M. pneumoniae count in time-kill curve: 6.145
[2]; 8×MIC, time 36
  M. pneumoniae count in time-kill curve: 4.163
[2]; 8×MIC, time 48
  M. pneumoniae count in time-kill curve: 3.977
[2]; 8×MIC, time 60
  M. pneumoniae count in time-kill curve: 3.326
[2]; 8×MIC, time 72
  M. pneumoniae count in time-kill curve: 3.283
[2]; 16×MIC, time 0
  M. pneumoniae count in time-kill curve: 7.138
[2]; 16×MIC, time 12
  M. pneumoniae count in time-kill curve: 6.732
[2]; 16×MIC, time 24
  M. pneumoniae count in time-kill curve: 6.1338
[2]; 16×MIC, time 36
  M. pneumoniae count in time-kill curve: 3.93
[2]; 16×MIC, time 48
  M. pneumoniae count in time-kill curve: 3.332
[2]; 16×MIC, time 60
  M. pneumoniae count in time-kill curve: 3.123
[2]; 16×MIC, time 72
  M. pneumoniae count in time-kill curve: 3.438
[2]; 32×MIC, time 0
  M. pneumoniae count in time-kill curve: 7.138
[2]; 32×MIC, time 12
  M. pneumoniae count in time-kill curve: 6.133
[2]; 32×MIC, time 24
  M. pneumoniae count in time-kill curve: 5.307
[2]; 32×MIC, time 36
  M. pneumoniae count in time-kill curve: 3.588
[2]; 32×MIC, time 48
  M. pneumoniae count in time-kill curve: 3.619
[2]; 32×MIC, time 60
  M. pneumoniae count in time-kill curve: 3.2228
[2]; 32×MIC, time 72
  M. pneumoniae count in time-kill curve: 3.181
[2]; 64×MIC, time 0
  M. pneumoniae count in time-kill curve: 7.138
[2]; 64×MIC, time 12
  M. pneumoniae count in time-kill curve: 6.741
[2]; 64×MIC, time 24
  M. pneumoniae count in time-kill curve: 5.886
[2]; 64×MIC, time 36
  M. pneumoniae count in time-kill curve: 3.638
[2]; 64×MIC, time 48
  M. pneumoniae count in time-kill curve: 3.377
[2]; 64×MIC, time 60
  M. pneumoniae count in time-kill curve: 2.841
[2]; 64×MIC, time 72
  M. pneumoniae count in time-kill curve: 2.68
[2]; static time-kill, 72 h
  concentration at which bactericidal effect was achieved: 2 × MIC
[3]; M. pneumoniae strain M129, ≈96 h, read-out: MIC
  MIC: 0.016 µg/mL (≈ 0.0218 µM)
[3]; M. pneumoniae strain M129, read-out: MBC
  MBC: 0.032 µg/mL (≈ 0.0436 µM)
